Data: PMC10041525, “New Dual Inhibitors of Bacterial Topoisomerases with Broad-Spectrum Antibacterial Activity and In Vivo Efficacy against Vancomycin-Intermediate Staphylococcus aureus” (Journal of Medicinal Chemistry, 2023)
≈ marks a conversion by molar mass, not a printed value. Like-named read-outs stand apart in the source and are kept apart here.

Experiments:
[1] = system: 100 A. baumannii strains (50 MDR, 50 non-MDR); experiment: MIC broth microdilution at IHMA Europe, panel of 100 strains; assay type: cell-based; conditions: for MIC / MIC50 / MIC90: Acinetobacter baumannii; for MIC50: read-out: MIC 50; for MIC90: read-out: MIC 90
[2] = system: 3 sensitive and 7 MDR A. baumannii clinical isolates; experiment: MIC, Hungarian clinical isolates and controls (384-well); assay type: cell-based; conditions: n=10

## C[C@@H](O)[C@H]1C(=O)N2C(C(=O)O)=C(S[C@@H]3CN[C@H](C(=O)N(C)C)C3)[C@H](C)[C@H]12 [Meropenem, meropenem]
[1]; A. baumannii IHMA 2177232, Lithuania 2020, MDR, read-out: MIC
  MIC: > 16 µg/mL
[1]; A. baumannii IHMA 2177489, Lithuania 2020, MDR, read-out: MIC
  MIC: > 16 µg/mL
[1]; A. baumannii IHMA 2178574, Ukraine 2020, Non-MDR, read-out: MIC
  MIC: ≤ 0.06 µg/mL
[1]; A. baumannii IHMA 2180134, Malaysia 2020, Non-MDR, read-out: MIC
  MIC: 0.25 µg/mL (≈ 0.652 µM)
[1]; A. baumannii IHMA 2180142, Malaysia 2020, MDR, read-out: MIC
  MIC: > 16 µg/mL
[1]; A. baumannii IHMA 2181370, Morocco 2020, MDR, read-out: MIC
  MIC: > 16 µg/mL
[1]; A. baumannii IHMA 2183729, Argentina 2020, MDR, read-out: MIC
  MIC: > 16 µg/mL
[1]; A. baumannii IHMA 2183849, Argentina 2020, Non-MDR, read-out: MIC
  MIC: 0.12 µg/mL (≈ 0.313 µM)
[1]; A. baumannii IHMA 2184382, Japan 2020, Non-MDR, read-out: MIC
  MIC: 0.12 µg/mL (≈ 0.313 µM)
[1]; A. baumannii IHMA 2193375, Venezuela 2020, MDR, read-out: MIC
  MIC: > 16 µg/mL
[1]; A. baumannii IHMA 2193485, Venezuela 2020, Non-MDR, read-out: MIC
  MIC: 0.12 µg/mL (≈ 0.313 µM)
[1]; A. baumannii IHMA 2193607, Venezuela 2020, MDR, read-out: MIC
  MIC: > 16 µg/mL
[1]; A. baumannii IHMA 2195460, Italy 2020, MDR, read-out: MIC
  MIC: > 16 µg/mL
[1]; A. baumannii IHMA 2196914, South Africa 2020, MDR, read-out: MIC
  MIC: > 16 µg/mL
[1]; A. baumannii IHMA 2196959, South Africa 2020, MDR, read-out: MIC
  MIC: > 16 µg/mL
[1]; A. baumannii IHMA 2203763, Spain 2020, MDR, read-out: MIC
  MIC: > 16 µg/mL
[1]; A. baumannii IHMA 2205144, Korea, South 2020, MDR, read-out: MIC
  MIC: 16 µg/mL (≈ 41.7 µM)
[1]; A. baumannii IHMA 2206459, Taiwan 2020, MDR, read-out: MIC
  MIC: > 16 µg/mL
[1]; A. baumannii IHMA 2206507, Taiwan 2020, Non-MDR, read-out: MIC
  MIC: 0.12 µg/mL (≈ 0.313 µM)
[1]; A. baumannii IHMA 2212575, Hungary 2020, Non-MDR, read-out: MIC
  MIC: 0.5 µg/mL (≈ 1.3 µM)
[1]; A. baumannii IHMA 2215307, Hong Kong 2020, Non-MDR, read-out: MIC
  MIC: 0.25 µg/mL (≈ 0.652 µM)
[1]; A. baumannii IHMA 2216586, Taiwan 2020, MDR, read-out: MIC
  MIC: > 16 µg/mL
[1]; A. baumannii IHMA 2223200, Colombia 2020, Non-MDR, read-out: MIC
  MIC: 0.12 µg/mL (≈ 0.313 µM)
[1]; A. baumannii IHMA 2224017, Panama 2020, MDR, read-out: MIC
  MIC: > 16 µg/mL
[1]; A. baumannii IHMA 2224303, Panama 2020, Non-MDR, read-out: MIC
  MIC: 1 µg/mL (≈ 2.61 µM)
[1]; A. baumannii IHMA 2231797, Greece 2020, MDR, read-out: MIC
  MIC: > 16 µg/mL
[1]; A. baumannii IHMA 2233099, Guatemala 2020, MDR, read-out: MIC
  MIC: > 16 µg/mL
[1]; A. baumannii IHMA 2233430, Kazakhstan 2020, MDR, read-out: MIC
  MIC: > 16 µg/mL
[1]; A. baumannii IHMA 2233548, Kazakhstan 2020, Non-MDR, read-out: MIC
  MIC: 0.25 µg/mL (≈ 0.652 µM)
[1]; A. baumannii IHMA 2238964, Thailand 2020, MDR, read-out: MIC
  MIC: > 16 µg/mL
[1]; A. baumannii IHMA 2239052, Thailand 2020, Non-MDR, read-out: MIC
  MIC: 0.12 µg/mL (≈ 0.313 µM)
[1]; A. baumannii IHMA 2261047, Belgium 2020, MDR, read-out: MIC
  MIC: > 16 µg/mL
[1]; A. baumannii IHMA 2261633, Canada 2020, Non-MDR, read-out: MIC
  MIC: 0.12 µg/mL (≈ 0.313 µM)
[1]; A. baumannii IHMA 2274234, South Africa 2020, MDR, read-out: MIC
  MIC: > 16 µg/mL
[1]; A. baumannii IHMA 2274364, South Africa 2020, MDR, read-out: MIC
  MIC: > 16 µg/mL
[1]; A. baumannii IHMA 2275237, Chile 2020, Non-MDR, read-out: MIC
  MIC: 0.25 µg/mL (≈ 0.652 µM)
[1]; A. baumannii IHMA 2275751, Jordan 2020, MDR, read-out: MIC
  MIC: > 16 µg/mL
[1]; A. baumannii IHMA 2316205, United States 2020, MDR, read-out: MIC
  MIC: > 16 µg/mL
[1]; MDR n = 50, read-out: MAX (maximum MIC; all strains inhibited)
  MIC: > 16 µg/mL
[1]; MDR n = 50
  MIC50: > 16 µg/mL
  MIC90: > 16 µg/mL
  Percentage I: 0%
  Percentage R: 100%
  Percentage S: 0%
[1]; MDR n = 50, read-out: MIN (minimum MIC)
  MIC: 16 µg/mL (≈ 41.7 µM)
[1]; all isolates n = 100, read-out: MAX (maximum MIC; all strains inhibited)
  MIC: > 16 µg/mL
[1]; all isolates n = 100
  MIC50: 1 µg/mL (≈ 2.61 µM)
  MIC90: > 16 µg/mL
[1]; all isolates n = 100, read-out: MIN (minimum MIC)
  MIC: ≤ 0.06 µg/mL
[1]; non-MDR n = 50, read-out: MAX (maximum MIC)
  MIC: 1 µg/mL (≈ 2.61 µM)
[1]; non-MDR n = 50
  MIC50: 0.25 µg/mL (≈ 0.652 µM)
  MIC90: 0.25 µg/mL (≈ 0.652 µM)
  Percentage I: 0%
  Percentage R: 0%
  Percentage S: 100%
[1]; non-MDR n = 50, read-out: MIN (minimum MIC)
  MIC: ≤ 0.06 µg/mL
[1]; all n = 100, CLSI breakpoints
  Percentage I: 0%
  Percentage R: 50%
  Percentage S: 50%
[2]; MIC 1 µg/mL
  Cumulative % at MIC: 30%
[2]; MIC 64 µg/mL
  Cumulative % at MIC: 100%
[2]; MIC […]
  Cumulative % at MIC: 10%
